According to US20260183297A1, “SELECTION OF PATIENTS FOR THE TREATMENT OF FADS1-MEDIATED DISEASES OR DISORDERS USING FADS-1 INHIBITORS” (AMGEN INC., priority 2022, published 2026):
Marks after values point to notes of the source that are not given here.

Key:
[1] = Fatty acid concentration and composition of plasma lipid subfractions (GC) of Compound A-treated DIO mice; assay type: in vivo; conditions: DIO mouse plasma, 30 mg/kg, mean
human FADS1 = target: T1, human FADS1 (Homo sapiens, UniProt O60427); test: In vitro FADS1 activity assay (HEK 293 cells with FADS1 BacMam, 13C5-DGLA substrate); assay type: cell-based; conditions: in vitro; read-out: half-maximal inhibitory concentration (IC50) against human FADS1
T1 construct: expressed in transfected cells; host or cells: HEK 293 cells transduced with FADS1 BacMam (MOI 25)
Protocol: HEK 293 cells in Dulbecco's Modified Eagle's medium (DMEM), 10% fetal bovine serum (FBS), 1× penicillin-streptomycin-glutamine (PSG) were mixed with FADS1 BacMam or FADS2 BacMam reagents at multiplicity of infection (MOI) ratio of 25 and plated in a in 96-well poly-D-lysine-coated plate. Plates were incubated in a 37° C., 5% CO2 for 24 hours. Cells were washed with DPBS and cells were incubated with 90 ml of compound dilution in DPBS at 5% CO2, 37° C. for 20 minutes. Ten L of the substrate, ^13C5-DGLA (FADS1), or 13C-LA (FADS2) diluted in DPBS were added to the cells and incubated at 5% CO2, 37° C. for 30 minutes (FADS1) or 45 minutes (FADS2). Cells were then washed with DPBS and 50 μL of 2N NaOH were added to each well and incubated in a 65° C. oven for 1 hour for the saponification reaction. […] Samples were then subjected to LC-MS/MS detection for the following analytes for the FADS1 reaction: ^13C5-DGLA and ^13C5-AA or the following analytes for the FADS2 reaction: ^13C18-LA, ^13C18-GLA, ^13C18-DGLA and ^13C18-AA. Samples were injected onto a Poroshell 120 EC-C18 3.0×50 mm, 1.9 um id column (Agilent, Santa Clara, CA).
The analyte peak areas were quantified by using the Analyst software (SCIEX, Framingham, MA). The percent of substrate to product conversion relative to untreated control were calculated (percent of control [POC]). […]

[2] = Liver histology assessment (H&E, Oil-red-O); assay type: in vivo, mouse; conditions: WT DIO mice, 10 mg/kg, 24 days, compared to WT vehicle
[3] = Tissue endocannabinoid measurement (2-AG, AEA); assay type: in vivo, mouse; conditions: liver and ING WAT, DIO mice, 30 mg/kg
Protocol: Approximately 200 mg of tissue per sample were used for endocannbabinoid extraction. To each frozen tissue sample, 10 μl of ice-cold 100 mM butylated hydroxytoluene (BHT; in methanol) and 0.5 ml of 100 nM AEA-d8 (in water) were added. Tissue sample solution with BHT were immediately homogenized using TissueLyser (QIAGEN, Germantown. MD) for 3 minutes at 30 Hz, followed by two consecutive 1.25 ml of ice-cold ethyl acetate:hexane (9:1) extraction. The pooled extracts were dried to complete dryness under nitrogen gas. Dried samples were redissolved in 80% acetonitrile and subjected to LC/MS analysis. 10 μl of sample was injected onto a Kinetex C18 2.1×100 mm, 2.6 μm column (Phenomenex, Torrance, CA). Mobile phase A is 0.2% acetic acid in water and mobile phase B is 0.1% formic acid in acetonitrile. The LC gradient was a 7-minute long method at a flow rate of 0.2 ml/minute consisting of an isocratic period from 0 to 1 minute at 75% B, followed by a gradient from 75 to 100% from 1 to 4 minutes, and 100 to 75% B from 4 to 7 minutes. The analyte peak areas were quantified using the Analyst software (SCIEX, Framingham MA).

T1 sequence (O60427 whole entry): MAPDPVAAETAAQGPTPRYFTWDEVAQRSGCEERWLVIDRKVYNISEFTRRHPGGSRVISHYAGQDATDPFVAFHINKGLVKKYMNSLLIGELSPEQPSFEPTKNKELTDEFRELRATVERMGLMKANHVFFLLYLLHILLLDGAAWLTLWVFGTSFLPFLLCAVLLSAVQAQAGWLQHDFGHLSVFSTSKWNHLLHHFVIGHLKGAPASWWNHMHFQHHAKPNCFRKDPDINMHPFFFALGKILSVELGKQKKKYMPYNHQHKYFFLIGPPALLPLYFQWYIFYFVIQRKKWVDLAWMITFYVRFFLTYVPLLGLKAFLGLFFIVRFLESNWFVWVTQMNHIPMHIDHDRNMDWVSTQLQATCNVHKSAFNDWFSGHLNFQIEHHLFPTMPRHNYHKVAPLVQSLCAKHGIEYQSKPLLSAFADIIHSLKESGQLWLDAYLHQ

IC50 (human FADS1): 3 nM | liver lipid content (Oil-red-O staining) [2]: reduced lipid content
Structure (SMILES): COc1ccn2c(=O)c(-c3cnn(CC(F)(F)C(F)(F)F)c3)c(C(F)(F)F)nc2c1 [Compound A, 8-methoxy-3-(1-(2,2,3,3,3-pentafluoropropyl)-1H-pyrazol-4-yl)-2-(trifluoromethyl)-4H-pyrido[1,2-a]pyrimidin-4-one]
C20:4n6 concentration, Cholesterol ester ([1]; Cholesterol ester): 72.4*** μg mL^−1 | C16:1n7t concentration, Phospholipids ([1]; Phospholipids): 1.2 µg/mL | C16:1n7t concentration, Total ([1]; Total lipids): 3.0 µg/mL | C20:2n6 concentration, Total ([1]; Total lipids): 9.9 µg/mL | C24:0 concentration, Total ([1]; Total lipids): 1.9 µg/mL | endocannabinoid (2-AG, AEA) levels [3]: Decreased levels of endocannabinoids
